Data reported in patent publication US5189016A, “Nutrient compositions containing peptides and method for administering the same” (Clintec Nutrition Co., priority 1990, dated 1993).
Read-outs that look alike come from different tables or passages of the source. Values belong to the compound of their own block, whether it stands above or below them. Peptide text beside a SMILES is read from it.

Key:
[1] = cited from earlier work
[2] = set-up: species or system piglets; details: in vivo
Text: In this experiment slightly preterm, colostrum-deprived piglets were maintained on total parenteral nutrition from birth to day 7 of life. All piglets in this study have been enrolled and completed the study period in the University of Florida Piglet Neonatal Intensive Care Unit. Ten piglets in the control group received standard neonatal piglet total parenteral nutrition solution containing amino acids, glucose, lipid, vitamins and minerals. Eleven piglets in the experimental group received the same total […] nutrition formulation with the exception that 20% of the amino acids in the standard solution was replaced with glutamine. […] Nine piglets in each group completed the full 7 days of the study. One piglet in the control group and two piglets in the experimental group became septic. […] To date, the amino acid analyses have been completed on blood samples from six of the piglets in the experimental group and on blood samples from seven of the piglets in the control group.

SMILES: NC(=O)CC[C@H](N)C(=O)O [Glutamine, glutamine]
Solubility in water ([1]; 30° C.): 4.8 grams/100 mL

SMILES: NC(=O)C[C@H](N)C(=O)O [asparagine]
Solubility in water ([1]; 28° C.): 3.5 grams/100 mL

Plasma glutamine concentration, mean [2]: 544 nmol/mL
SMILES: NCC(=O)N[C@@H](CCC(N)=O)C(=O)O [glycylglutamine dipeptide, glycyl-glutamine] (H-Gly-Gln-OH)
Adverse effect in septic piglets [2]: signs of severe convulsions | Plasma glutamine concentrations compared to control group [2]: increases the plasma glutamine concentrations

SMILES: N[C@@H](Cc1c[nH]c2ccccc12)C(=O)O [tryptophan]
Solubility in water ([1]; 25° C.): 11.4 grams/100 mL
